Measured values: US8501813B2, “γ-secretase inhibitor” (Kabushiki Kaisha Yakult Honsha, priority 2007, dated 2013)
Where two headings read alike, the source gives them in different places. *: point of attachment. Boc = CC(C)(C)OC(=O)*

Experiments:
[1] = target: T1, γ-secretase (Homo sapiens, UniProt P49768); test: Aβ secretion by C99 cells (HEK293 stably expressing APP-C99), γ-secretase inhibitory effect, Aβ ELISA of culture supernatant; assay type: cell-based; conditions: for IC50: interpolated from the two concentrations that bracket 50%
Excerpt: HEK293 cells (ATCC) were transfected with APP C99 pcDNA3.1 (the nucleotide sequence of its coding region is shown in SEQ ID NO: 1) (J. Biol. Chem., 2003, 278, 49448-49458). Cell strains (C99 cells) confirmed to stably express APP-C99 (artificial APP fragment that originally lacked a polypeptide portion to be cleaved by α- or β-secretase at the first stage in the two-stage reaction of Aβ production from APP) were used to study the γ-secretase inhibitory effects of four test substances (TLVM-5, TLVM-7, TLVM-8, and TLVM-9) in vitro.
(§1) In the present test, a medium used for the C99 cells was 500 mL of a Dulbecco's Modified Eagle's Medium (DMEM, Sigma-Aldrich Corp.) supplemented with 55 ml of fetal bovine serum (Biosource), 5.5 ml of MEM non-essential amino acids (Gibco), and 5.5 ml of penicillin/streptomycin (Gibco).
The C99 cells were suspended at a concentration of 5×10^4 cells/ml in the medium. The suspension was added at a concentration of 1 ml (5×10^4 cells)/well to a 24-well collagen plate (Akita Sumitomo Bakelite Co., Ltd.) and cultured for 3 days. Then, the medium in the wells was removed, and the wells were washed with a medium (1 ml/well). The medium was removed, and a fresh medium was then added thereto at a concentration of 0.4 ml/well. The cells were exposed to the test substances and positive controls and incubated for 24 hours, and the culture supernatants were collected. The positive controls used were L-685,458 (CALBIOCHEM) and Boc-Leu-Val-Met-Leu-OMe (hereinafter, referred to as LVML-1) disclosed in Example 1 of Patent Document 1 (WO03/091278). The exposure concentrations were set to four concentrations, 0.3, 1, 3, and 10 μmol/L, for all the test substances and the positive controls. The concentrations of Aβ (1-40) and Aβ (1-42) in the culture supernatants were measured using Human Amyloid β (1-40) (N) Assay Kit (L)-IBL and Human Amyloid β (1-42) (N) Assay Kit (L)-IBL (Immuno-Biological Laboratories, Co., Ltd.). The amounts of Aβ (1-40) and Aβ (1-42) secreted were calculated by subtracting the concentrations of Aβ (1-40) and Aβ (1-42) originally contained in the medium before the C99 cell inoculation, from the measured concentrations thereof, respectively. Moreover, when the Aβ secretion rate of a negative control (5% DMSO-containing medium, resulting in 1% DMSO at the final concentration) is defined as 100%, Aβ secretion rates at each concentration of the test substances and the positive controls were calculated.
The TLVM-5, TLVM-7, TLVM-8, and TLVM-9 confirmed in Example 8 to have strong inhibitory activities against γ-secretase activities were subjected to an additional experiment at low concentrations (exposure concentrations were set to three concentrations, […], for the test substances and to four concentrations, 0.1, 0.3, 1, and 3 μmol/L, for the positive control).
Moreover, Aβ secretion rates at two concentrations of the test substance that bracket the concentration at which Aβ secretion was inhibited by 50% (IC50) were used to calculate IC50 according to the following equation: IC50:10^[LOG(A/B)*(50−C)/(D−C)+LOG(B)],wherein
A: of the two points that bracket 50% inhibition, the higher concentration of the test substance,
B: of the two points that bracket 50% inhibition, the lower concentration of the test substance,
C: secretion rate (%) at the concentration B, and
D: secretion rate (%) at the concentration A.

[2] = tested on: C99 cells; test: Cytotoxicity on C99 cells, cell viability by Cell Counting Kit-8; assay type: cell-based, human; conditions: 24 h
Experimental: The cytotoxicity of four test substances (TLVM-5, TLVM-7, TLVM-8, and TLVM-9) on the C99 cells was measured using a method shown below.
as §1
The C99 cells were suspended at a concentration of 0.75×10^5 cells/ml in the medium. The suspension was added at a concentration of 100 μL (0.75×10^4 cells)/well to a 96-well collagen plate (Akita Sumitomo Bakelite Co., Ltd.) and cultured for 2 days. Then, the medium (corresponding to 50 μL/well) in the wells was removed, and a fresh medium was added thereto at a concentration of 30 μL/well. […] Then, the cell viability was measured using Cell Counting Kit-8 (Dojindo Laboratories).

[3] = target: T1, γ-secretase; test: Substrate specificity: β-Alcα secretion by HEK293 cells transfected with FLAG Alcα C150, anti-FLAG immunoprecipitation/western blot; assay type: cell-based; conditions: for (ii) β-Alcα secretion rate of HEK293 cells: 24 h, FLAG Alcα C150, negative control = 100%
Experimental: (§2) Of families constituting human Alcadein (hereinafter, referred to as Alc) known as a substrate for γ-secretase to colocalize with APP in brain neurons, an artificial Alcα fragment (hereinafter, referred to as Alcα C150) whose first extracellular cleavage site and γ-secretase cleavage site were determined was used to study the substrate specificity of the γ-secretase inhibitor of the present invention. β-Alcα produced from a first cleavage construct of Alcα cannot be quantified by sELISA used in Aβ measurement. Therefore, proteins with an attached FLAG tag at the N termini of first cleavage constructs of Alcα and of C99 were expressed by cells. FLAG-Aβ-like peptides secreted into a medium were collected by immunoprecipitation using anti-FLAG antibodies and detected by western blotting using the antibodies. A specific method thereof is shown below.
(§3) HEK293 cells (ATCC) (1×10^7 cells/10 cm dish) cultured in 6 ml of 10% FCS-containing DMEM (Wako Pure Chemical Industries, Ltd.) were transfected with FLAG APP C99 pcDNA3.1 (the nucleotide sequence of its coding region is shown in SEQ ID NO: 2) (J. Biol. Chem., 2003, 278, 49448-49458 (which was prepared from pcDNA3-APPC99)) or with FLAG Alcα C150 pcDNA3.1 (the nucleotide sequence of its coding region is shown in SEQ ID NO: 3) (J. Biol. Chem., 2004, 279, 24343-24354 (which was the same as pcDNA3AlcαΔE)) using Lipofectamine 2000 (Invitrogen Corp.) according to the protocol included in the reagent. Each inhibitor and a positive control (γ-Secretase Inhibitor IX (DAPT)) (Calbiochem Contact Information) were separately added at a concentration of 0.2 or 2 μmol/L. The same dose of DMSO (Wako Pure Chemical Industries, Ltd.) thereas was added as a negative control. 24 hours later, the culture supernatants were collected, and samples were preliminarily purified using beads (100 μL of 50% (v/v) Protein-G Sepharose (GE Healthcare)). Then, 15 μL of 50% (v/v) anti-FLAG antibody M2 beads (Sigma-Aldrich Corp.) were added thereto, and the samples were incubated at 4° C. for 1 hour. The beads were collected by centrifugation and washed three times with a buffer (10 mM Tris-HCl [pH 8.0], 140 mM NaCl, 0.1% n-octyl glucoside, 0.025% sodium azide), and Aβ and β-Alcα in the medium were collected. The proteins were subjected to SDS-PAGE using a 15% Tris-Tricine gel (Anal Biochem., 1987, 166 (2), 368-379) and then transferred to a membrane. The membrane was boiled for 5 minutes in PBS. Then, anti-FLAG M2 antibodies (5 μg/ml) (Sigma-Aldrich Corp.) were added thereto, and the membrane was incubated, followed by detection using a western blotting detection reagent ECL (GE Healthcare). This signal was quantified using Versa-doc system (Bio-Rad Laboratories, Inc.) to calculate protein secretion rates (the protein secretion rate of the negative control is defined as 100%).

[4] = target: T1, γ-secretase; test: Substrate specificity: FLAG-Aβ secretion by HEK293 cells transfected with FLAG APP C99, anti-FLAG immunoprecipitation/western blot; assay type: cell-based; conditions: for (i) Aβ secretion rate of HEK293 cells: 24 h, FLAG APP C99, negative control = 100%
Experimental: as §2, §3

[5] = Example 8, exposure 0.3 μmol/L, 24 h
[6] = Example 8, exposure 0.3 μmol/L, 24 h, negative control = 100%
[7] = Example 8, exposure 1 μmol/L, 24 h
[8] = Example 8, exposure 3 μmol/L, 24 h
[9] = Example 8, exposure 10 μmol/L, 24 h

Row | Compound | Aβ (1-42) secretion rate of C99 cells [1, 5] [%] | Aβ [(1-40) + (1-42)] secretion rate of C99 cells [1, 5] [%] | Aβ (1-40) secretion rate of C99 cells [1, 6] [%] | Aβ (1-40) secretion rate of C99 cells [1, 7] [%] | Aβ (1-42) secretion rate of C99 cells [1, 7] [%] | Aβ [(1-40) + (1-42)] secretion rate of C99 cells [1, 7] [%] | Aβ (1-40) secretion rate of C99 cells [1, 8] [%] | Aβ (1-42) secretion rate of C99 cells [1, 8] [%] | Aβ [(1-40) + (1-42)] secretion rate of C99 cells [1, 8] [%] | Aβ (1-40) secretion rate of C99 cells [1, 9] [%] | Aβ (1-42) secretion rate of C99 cells [1, 9] [%] | Aβ [(1-40) + (1-42)] secretion rate of C99 cells [1, 9] [%] | (ii) β-Alcα secretion rate of HEK293 cells ([3]; 2 μmol/L) [%] | (i)/(ii) ratio, Aβ / β-Alcα secretion rates ([4]; 2 μmol/L) | (i) Aβ secretion rate of HEK293 cells ([4]; 2 μmol/L) [%] | (ii) β-Alcα secretion rate of HEK293 cells ([3]; 0.2 μmol/L) [%] | (i)/(ii) ratio, Aβ / β-Alcα secretion rates ([4]; 0.2 μmol/L) | (i) Aβ secretion rate of HEK293 cells ([4]; 0.2 μmol/L) [%] | further results
1 | Boc-Leu-Val-Met-Leu-OMe (Boc-LVML-OMe; SMILES COC(=O)[C@H](CC(C)C)NC(=O)[C@H](CCSC)NC(=O)[C@@H](NC(=O)[C@H](CC(C)C)NC(=O)OC(C)(C)C)C(C)C) [LVML-1, reference compound] | 95 | 138 | 140 | 112 | 78 | 110 | 106 | 104 | 105 | 83 | 61 | 82 | – | – | – | – | – | – | –
2 | CC(C)C[C@H](NC(=O)[C@H](Cc1ccccc1)C[C@@H](O)[C@H](Cc1ccccc1)NC(=O)OC(C)(C)C)C(=O)N[C@@H](Cc1ccccc1)C(N)=O [L-685, 458, reference compound] | 96 | 101 | 101 | 68 | 70 | 68 | 38 | 49 | 39 | 9 | 24 | 9 | – | – | – | – | – | – | Aβ (1-40) secretion rate of C99 cells ([1]; Example 9, exposure 0.1 μmol/L): 114%; Aβ (1-42) secretion rate of C99 cells ([1]; Example 9, exposure 0.1 μmol/L): 97%; Aβ [(1-40) + (1-42)] secretion rate of C99 cells ([1]; Example 9, exposure 0.1 μmol/L): 113%; Aβ (1-40) secretion rate of C99 cells ([1]; Example 9, exposure 0.3 μmol/L): 90%; Aβ (1-42) secretion rate of C99 cells ([1]; Example 9, exposure 0.3 μmol/L): 91%; Aβ [(1-40) + (1-42)] secretion rate of C99 cells ([1]; Example 9, exposure 0.3 μmol/L): 90%; Aβ (1-40) secretion rate of C99 cells ([1]; Example 9, exposure 1 μmol/L): 72%; Aβ (1-42) secretion rate of C99 cells ([1]; Example 9, exposure 1 μmol/L): 87%; Aβ [(1-40) + (1-42)] secretion rate of C99 cells ([1]; Example 9, exposure 1 μmol/L): 73%; Aβ (1-40) secretion rate of C99 cells ([1]; Example 9, exposure 3 μmol/L): 32%; Aβ (1-42) secretion rate of C99 cells ([1]; Example 9, exposure 3 μmol/L): 8%; Aβ [(1-40) + (1-42)] secretion rate of C99 cells ([1]; Example 9, exposure 3 μmol/L): 31%; IC50 ([1]; Example 9, read-out: IC50, Aβ (1-40) secretion of C99 cells): 1.8 µM; IC50 ([1]; Example 9, read-out: IC50, Aβ (1-42) secretion of C99 cells): 1.7 µM; Cell viability of C99 cells ([2]; exposure 0.3 μmol/L): 133%; Cell viability of C99 cells ([2]; exposure 1 μmol/L): 125%; Cell viability of C99 cells ([2]; exposure 3 μmol/L): 110%; Cell viability of C99 cells ([2]; exposure 10 μmol/L): 99%
3 | CSCC[C@H](NC(=O)[C@H](C)NC(=O)[C@H](CC(C)C)C[C@@H](O)[C@@H](NC(=O)OC(C)(C)C)[C@@H](C)O)C(=O)NCc1ccccc1 [TLVM-10, [5S-(tert-butoxycarbonylamino)-4R,6R-dihydroxy-2R-(2-methylpropyl)heptanoyl]-L-alanyl-L-methionine benzylamide] | – | – | – | – | – | – | – | – | – | – | – | – | 94 | 0.39 | 37 | – | – | – | γ cleavage of the Alcα-C150, in words ([3]; 2 μmol/L): did not inhibit; cleavage of APP-C99, in words ([4]; 2 μmol/L): specifically inhibited
4 | C[C@H](NC(=O)Cc1cc(F)cc(F)c1)C(=O)N[C@H](C(=O)OC(C)(C)C)c1ccccc1 [DAPT, reference compound] | – | – | – | – | – | – | – | – | – | – | – | – | 16 | 1.26 | 20 | 23 | 0.35 | 8 | –
5 | CSCC[C@H](NC(=O)[C@@H](NC(=O)[C@H](CC(C)C)C[C@@H](O)[C@@H](NC(=O)OC(C)(C)C)[C@@H](C)O)c1ccccc1)C(=O)NCc1ccccc1 [TLVM-11, [5S-(tert-butoxycarbonylamino)-4R,6R-dihydroxy-2R-(2-methylpropyl)heptanoyl]-L-phenylglycyl-L-methionine benzylamide] | – | – | – | – | – | – | – | – | – | – | – | – | – | – | – | 68 | 0.12 | 8 | γ cleavage of the Alcα-C150, in words ([3]; 0.2 μmol/L): did not inhibit; cleavage of APP-C99, in words ([4]; 0.2 μmol/L): specifically inhibited
